Measurements reported in patent US20240374598A1, “INHIBITORS OF HUMAN IMMUNODEFICIENCY VIRUS REPLICATION” (ViiV HEALTHCARE UK (NO.5) LIMITED, priority 2018, published 2024).

Columns and labels:
[1] = test system: recombinant NL4-3 virus (nef section replaced with Renilla luciferase gene) in MT-2 cells; test: HIV cell culture assay (antiviral activity, luciferase readout); assay type: cell-based; conditions: NL43, MT-2 cells infected for 4-5 days with recombinant NL4-3 Renilla luciferase virus
Protocol: HIV cell culture assay—MT-2 cells, 293T cells and the proviral DNA clone of NL4-3 virus were obtained from the NIH AIDS Research and Reference Reagent Program. MT-2 cells were propagated in RPMI 1640 media supplemented with 10% heat inactivated fetal bovine serum (FBS), […]. The 293T cells were propagated in DMEM media supplemented with 10% heat inactivated FBS, […]. A recombinant NL4-3 proviral clone, in which a section of the nef gene was replaced with the Renilla luciferase gene, was used to make the reference virus used in these studies. The recombinant virus was prepared through transfection of the recombinant NL4-3 proviral clone into 293T cells using Transit-293 Transfection Reagent from Mirus Bio LLC (Madison, WI). Supernatent was harvested after 2-3 days and the amount of virus present was titered in MT-2 cells using luciferase enzyme activity as a marker by measuring luciferase enzyme activity. Luciferase was quantitated using the EnduRen Live Cell Substrate from Promega (Madison, WI). Antiviral activities of compounds toward the recombinant virus were quantified by measuring luciferase activity in MT-2 cells infected for 4-5 days with the recombinant virus in the presence of serial dilutions of the compound.
The 50% effective concentration (EC50) was calculated by using the exponential form of the median effect equation where (Fa)=1/[1+(ED50/drug conc.)m] (Johnson VA, Byington RT. Infectivity Assay. In Techniques in HIV Research. ed. Aldovini A, Walker BD. 71-76. New York: Stockton Press. 1990). The 50% inhibitory concentration (EC50) was calculated by using the exponential form of the median effect equation where percent inhibition=1/[1+(EC50/drug concentration)m], where m is a parameter that reflects the slope of the concentration-response curve.

[2] = Compound cytotoxicity, XTT-based colorimetric assay; assay type: cell-based; conditions: human; uninfected MT2 cells, day 4, XTT assay
Protocol: Compound cytotoxicity and the corresponding CC50 values were determined using the same protocol as described in the antiviral assay except that uninfected cells were used. Cytotoxicity was assessed on day 4 in uninfected MT2 cells by using a XTT (2,3-bis[2-Methoxy-4-nitro-5-sulfophenyl]-2H-tetrazolium-5-carboxyanilide inner salt)-based colorimetric assay (Sigma-Aldrich, St Louis, Mo).

**Q.** Which EC50 [1] does the source give for `CC(C)COc1ccc2c(=O)n(-c3ccc(Cl)c4c(NS(C)(=O)=O)nn(C)c34)c([C@H](Cc3cc(F)cc(F)c3)NC(=O)Cn3nc(C(F)F)c4c3C(F)(F)[C@@H]3C[C@H]43)nc2c1` [Example 12, N—((S)-1-(3-(4-chloro-1-methyl-3-(methylsulfonamido)-1H-indazol-7-yl)-7-isobutoxy-4-oxo-3,4-dihydroquinazolin-2-yl)-2-(3,5-difluorophenyl)ethyl)-2-((3bS,4aR)-3-(difluoromethyl)-5,5-difluoro-3b,4,4a,5-tetrahydro-1H-cyclopropa[3,4]cyclopenta[1,2-c]pyrazol-1-yl)acetamide] here?
**A.** The EC50 was 0.109 nM.

**Q.** And the CC50 at 4 day [2]?
**A.** The CC50 at 4 day was > 1000 nM.

**Q.** For `CC(C)[C@H](C)Oc1ccc2c(=O)n(-c3ccc(Cl)c4c(NS(C)(=O)=O)nn(C)c34)c([C@H](Cc3cc(F)cc(F)c3)NC(=O)Cn3nc(C(F)F)c4c3C(F)(F)[C@@H]3C[C@H]43)nc2c1` [Example 13, N—((S)-1-(3-(4-chloro-1-methyl-3-(methylsulfonamido)-1H-indazol-7-yl)-7-(((S)-3-methylbutan-2-yl)oxy)-4-oxo-3,4-dihydroquinazolin-2-yl)-2-(3,5-difluorophenyl)ethyl)-2-((3bS,4aR)-3-(difluoromethyl)-5,5-difluoro-3b,4,4a,5-tetrahydro-1H-cyclopropa[3,4]cyclopenta[1,2-c]pyrazol-1-yl)acetamide], which EC50 [1] is on record?
**A.** Its EC50 is 0.239 nM.

**Q.** And the CC50 at 4 day [2]?
**A.** Its CC50 at 4 day is > 1000 nM.

**Q.** For `Cc1ccc2c(=O)n(-c3ccc(Cl)c4c(NS(C)(=O)=O)nn(C)c34)c([C@H](Cc3cc(F)cc(F)c3)NC(=O)Cn3nc(C(F)F)c4c3C(F)(F)[C@@H]3C[C@H]43)nc2c1` [Example 15, N—((S)-1-(3-(4-chloro-1-methyl-3-(methylsulfonamido)-1H-indazol-7-yl)-7-methyl-4-oxo-3,4-dihydroquinazolin-2-yl)-2-(3,5-difluorophenyl)ethyl)-2-((3bS,4aR)-3-(difluoromethyl)-5,5-difluoro-3b,4,4a,5-tetrahydro-1H-cyclopropa[3,4]cyclopenta[1,2-c]pyrazol-1-yl)acetamide], which EC50 [1] is on record?
**A.** The EC50 was 0.071 nM.

**Q.** What about the CC50 at 4 day [2] of the same molecule?
**A.** The CC50 at 4 day was > 1000 nM.

**Q.** What does the source list for `CCc1ccc2c(=O)n(-c3ccc(Cl)c4c(NS(C)(=O)=O)nn(C)c34)c([C@H](Cc3cc(F)cc(F)c3)NC(=O)Cn3nc(C(F)F)c4c3C(F)(F)[C@@H]3C[C@H]43)nc2c1` [Example 16, N—((S)-1-(3-(4-chloro-1-methyl-3-(methylsulfonamido)-1H-indazol-7-yl)-7-ethyl-4-oxo-3,4-dihydroquinazolin-2-yl)-2-(3,5-difluorophenyl)ethyl)-2-((3bS,4aR)-3-(difluoromethyl)-5,5-difluoro-3b,4,4a,5-tetrahydro-1H-cyclopropa[3,4]cyclopenta[1,2-c]pyrazol-1-yl)acetamide]?
**A.** EC50 [1]: 0.084 nM; CC50 at 4 day [2]: > 1000 nM

**Q.** Which results are given for `CC(F)(F)c1ccc2c(=O)n(-c3ccc(Cl)c4c(NS(C)(=O)=O)nn(CC(F)F)c34)c([C@H](Cc3cc(F)cc(F)c3)NC(=O)Cn3nc(C(F)F)c4c3C(F)(F)[C@@H]3C[C@H]43)nc2c1` [Example 17, N—((S)-1-(3-(4-chloro-1-(2,2-difluoroethyl)-3-(methylsulfonamido)-1H-indazol-7-yl)-7-(1,1-difluoroethyl)-4-oxo-3,4-dihydroquinazolin-2-yl)-2-(3,5-difluorophenyl)ethyl)-2-((3bS,4aR)-3-(difluoromethyl)-5,5-difluoro-3b,4,4a,5-tetrahydro-1H-cyclopropa[3,4]cyclopenta[1,2-c]pyrazol-1-yl)acetamide]?
**A.** EC50 [1]: 0.083 nM; CC50 at 4 day [2]: > 1000 nM

**Q.** Which results are given for `CC(F)(F)c1ccc2c(=O)n(-c3ccc(Cl)c4c(NS(=O)(=O)C5CC5)nn(CC(F)F)c34)c([C@H](Cc3cc(F)cc(F)c3)NC(=O)Cn3nc(C(F)F)c4c3C(F)(F)[C@@H]3C[C@H]43)nc2c1` [Example 18, N—((S)-1-(3-(4-chloro-3-(cyclopropanesulfonamido)-1-(2,2-difluoroethyl)-1H-indazol-7-yl)-7-(1,1-difluoroethyl)-4-oxo-3,4-dihydroquinazolin-2-yl)-2-(3,5-difluorophenyl)ethyl)-2-((3bS,4aR)-3-(difluoromethyl)-5,5-difluoro-3b,4,4a,5-tetrahydro-1H-cyclopropa[3,4]cyclopenta[1,2-c]pyrazol-1-yl)acetamide]?
**A.** EC50 [1]: 0.069 nM; CC50 at 4 day [2]: > 1000 nM

**Q.** For `CCCc1ccc2c(=O)n(-c3ccc(Cl)c4c(NS(C)(=O)=O)nn(C)c34)c([C@H](Cc3cc(F)cc(F)c3)NC(=O)Cn3nc(C(F)F)c4c3C(F)(F)[C@@H]3C[C@H]43)nc2c1` [Example 19, N—((S)-1-(3-(4-chloro-1-methyl-3-(methylsulfonamido)-1H-indazol-7-yl)-4-oxo-7-propyl-3,4-dihydroquinazolin-2-yl)-2-(3,5-difluorophenyl)ethyl)-2-((3bS,4aR)-3-(difluoromethyl)-5,5-difluoro-3b,4,4a,5-tetrahydro-1H-cyclopropa[3,4]cyclopenta[1,2-c]pyrazol-1-yl)acetamide], which EC50 [1] is on record?
**A.** Its EC50 is 0.063 nM.

**Q.** And the CC50 at 4 day [2]?
**A.** The CC50 at 4 day was > 1000 nM.

**Q.** Which EC50 [1] does the source give for `CCC(F)(F)c1ccc2c(=O)n(-c3ccc(Cl)c4c(NS(C)(=O)=O)nn(C)c34)c([C@H](Cc3cc(F)cc(F)c3)NC(=O)Cn3nc(C(F)F)c4c3C(F)(F)[C@@H]3C[C@H]43)nc2c1` [Example 20, N—((S)-1-(3-(4-chloro-1-methyl-3-(methylsulfonamido)-1H-indazol-7-yl)-7-(1,1-difluoropropyl)-4-oxo-3,4-dihydroquinazolin-2-yl)-2-(3,5-difluorophenyl)ethyl)-2-((3bS,4aR)-3-(difluoromethyl)-5,5-difluoro-3b,4,4a,5-tetrahydro-1H-cyclopropa[3,4]cyclopenta[1,2-c]pyrazol-1-yl)acetamide] here?
**A.** The EC50 was 0.122 nM.

**Q.** What about the CC50 at 4 day [2] of the same molecule?
**A.** The CC50 at 4 day was > 1000 nM.

**Q.** For `Cn1nc(NS(C)(=O)=O)c2c(Cl)ccc(-n3c([C@H](Cc4cc(F)cc(F)c4)NC(=O)Cn4nc(C(F)F)c5c4C(F)(F)[C@@H]4C[C@H]54)nc4cc(CCC(F)(F)F)ccc4c3=O)c21` [Example 21, N—((S)-1-(3-(4-chloro-1-methyl-3-(methylsulfonamido)-1H-indazol-7-yl)-4-oxo-7-(3,3,3-trifluoropropyl)-3,4-dihydroquinazolin-2-yl)-2-(3,5-difluorophenyl)ethyl)-2-((3bS,4aR)-3-(difluoromethyl)-5,5-difluoro-3b,4,4a,5-tetrahydro-1H-cyclopropa[3,4]cyclopenta[1,2-c]pyrazol-1-yl)acetamide], which EC50 [1] is on record?
**A.** The EC50 was 0.122 nM.

**Q.** And the CC50 at 4 day [2]?
**A.** The CC50 at 4 day was > 1000 nM.

**Q.** For `Cn1nc(NS(C)(=O)=O)c2c(CCC(F)(F)F)ccc(-n3c([C@H](Cc4cc(F)cc(F)c4)NC(=O)Cn4nc(C(F)F)c5c4C(F)(F)[C@@H]4C[C@H]54)nc4cc(CCC(F)(F)F)ccc4c3=O)c21` [Example 22, 2-((3bS,4aR)-3-(difluoromethyl)-5,5-difluoro-3b,4,4a,5-tetrahydro-1H-cyclopropa[3,4]cyclopenta[1,2-c]pyrazol-1-yl)-N—((S)-2-(3,5-difluorophenyl)-1-(3-(1-methyl-3-(methylsulfonamido)-4-(3,3,3-trifluoropropyl)-1H-indazol-7-yl)-4-oxo-7-(3,3,3-trifluoropropyl)-3,4-dihydroquinazolin-2-yl)ethyl)acetamide], which EC50 [1] is on record?
**A.** Its EC50 is 0.573 nM.

**Q.** What about the CC50 at 4 day [2] of the same molecule?
**A.** The CC50 at 4 day was > 1000 nM.

**Q.** Which results are given for `CS(=O)(=O)Nc1nn(CC(F)F)c2c(-n3c([C@H](Cc4cc(F)cc(F)c4)NC(=O)Cn4nc(C(F)F)c5c4C(F)(F)[C@@H]4C[C@H]54)nc4cc(CCC(F)(F)F)ccc4c3=O)ccc(Cl)c12` [Example 23, N—((S)-1-(3-(4-chloro-1-(2,2-difluoroethyl)-3-(methylsulfonamido)-1H-indazol-7-yl)-4-oxo-7-(3,3,3-trifluoropropyl)-3,4-dihydroquinazolin-2-yl)-2-(3,5-difluorophenyl)ethyl)-2-((3bS,4aR)-3-(difluoromethyl)-5,5-difluoro-3b,4,4a,5-tetrahydro-1H-cyclopropa[3,4]cyclopenta[1,2-c]pyrazol-1-yl)acetamide]?
**A.** EC50 [1]: 0.094 nM; CC50 at 4 day [2]: > 1000 nM

**Q.** With `O=C(Cn1nc(C(F)F)c2c1C(F)(F)[C@@H]1C[C@H]21)N[C@@H](Cc1cc(F)cc(F)c1)c1nc2cc(CCC(F)(F)F)ccc2c(=O)n1-c1ccc(Cl)c2c(NS(=O)(=O)C3CC3)nn(CC(F)F)c12` [Example 24, N—((S)-1-(3-(4-chloro-3-(cyclopropanesulfonamido)-1-(2,2-difluoroethyl)-1H-indazol-7-yl)-4-oxo-7-(3,3,3-trifluoropropyl)-3,4-dihydroquinazolin-2-yl)-2-(3,5-difluorophenyl)ethyl)-2-((3bS,4aR)-3-(difluoromethyl)-5,5-difluoro-3b,4,4a,5-tetrahydro-1H-cyclopropa[3,4]cyclopenta[1,2-c]pyrazol-1-yl)acetamide] as the molecule, how does the EC50 [1] read?
**A.** The EC50 was 0.155 nM.

**Q.** And the CC50 at 4 day [2]?
**A.** The CC50 at 4 day was > 1000 nM.
